Measurements reported in patent US4218477A, “Primary aminoacylanilides, methods of making the same and use as antiarrhythmic drugs” (priority 1976, dated 1980).
Read-outs that look alike come from different tables or passages of the source.

Columns and labels:
[1] = test system: chloroform-induced arrhythmias; conditions: mouse, in vivo
[2] = test system: chloroform-induced arrhythmias; assay: animal or person; conditions: Mus musculus
[3] = test system: chloroform induced fibrillation; assay: Protection against chloroform induced fibrillation in mice, subcutaneous, potency relative to lidocaine (Table IV); format: in vivo; conditions: s.c., 20 min, statistical mean (confidence limits)
Protocol: (§1) The experiments on mice were performed according to a modification of the method described by J. W. Lawson, "Antiarrhythmic activity of some isoquinoline derivatives determined by a rapid screening procedure in the mouse", J. Pharm. Exp. Therap. Vol. 160, pp. 22-31 (1968). This method is based upon the observation that when an unanesthetized, untreated mouse is exposed to chloroform vapor its respiration soon ceases and at that time both electrocardiographic and visual inspection reveal that the cardiac ventricles are fibrillating. If the mouse is treated appropriately with known antiarrhythmic agents prior to exposure to chloroform, the respiratory failure is not accompanied by ventricular fibrillation.
The procedure used was a modification of the method previously described. The modification involved using a standard time of 20 minutes for each test run and four different doses of the same drug. Route of administration was subcutaneous.

ventricular arrhythmias [4] = format: in vivo, dogs
Protocol: Vol. 1, pp. 1318-1328 (1950). […] The electrocardiographic, cardiovascular and other drug effects were monitored.
Table II summarizes the results of oral administration:
Dogs #215 and #220 given 50 mg/kg dose at 0 mins and 100 mg/kg dose at 24
The electrocardiographic, cardiovascular and other drug effects were monitored.

ventricular arrhythmias [5] = assay: animal or person
Protocol: Tests on dogs with the compound 2-amino-2',6'-propionoxylidide were conducted according to a modification of the method described by A. S. Harris in "Delayed Development of Ventricular Ectopic Rhythms Following Experimental Coronary Occlusions", Circ. Vol. 1, pp. 1318-1328 (1950). In this method the dogs were anesthetized, the heart was exposed, and the anterior descending branch of the left coronary artery was ligated in two stages. The thorax was closed and the dog was allowed to recover from the anesthesia. […] B. B. Clark and J. R. Cummings, "Arrhythmias Following Experimental Coronary Occlusion and Their Response to Drugs", Annals New York Academy of Sciences, Vol. 65, pp. 543-551 (1956). […] The electrocardiographic, cardiovascular and other drug effects were monitored.
The dosage schedule was: 1st hr.: 15 mg/kg/hr; 2nd hr.: 30 mg/kg/hr; 3rd hr.: 60 mg/kg/hr. Infusions were stopped at the first sign of toxicity other than emesis.
The compound 3-amino-2',6'-butyroxylidide was also tested on dogs, according to a modification of the method of Harris as previously described. As in the previously described tests, unanesthetized dogs were supported in canvas slings and were treated either intravenously or orally with doses of 3-amino-2',6'-butyroxylidide. The electrocardiographic, cardiovascular and other drug effects were monitored.

ventricular fibrillation [6] = assay: Protection against chloroform induced fibrillation in the guinea pig, intraperitoneal (Table V); format: in vivo; conditions: 326 mg/kg i.p., 20 min before chloroform
Protocol: Guinea pigs (250-350 g) were placed individually into a series of 4000 ml beakers containing cotton and 100 ml of chloroform. After cessation of respiration the animal was removed from the beaker, the thorax was opened and the heart was examined for the presence or absence of ventricular fibrillation. The nature of the cardiac rhythm was confirmed by electrocardiographic recordings.
A single dose (about 1-5 ml) of each test compound was administered intraperitoneally by a 25 gauge needle twenty minutes before the animals were placed in chloroform.

pKa = format: physicochemical; conditions: 23; read-out: pkaa^23
ventricular fibrillation [7] = assay: Protection against chloroform induced ventricular fibrillation in mice, oral (Table I); format: in vivo, female Swiss albino mice (HAM/ICR)
Protocol: as §1

mice [8] = assay: Ataxia just before CHCl3 challenge in mice, oral (Table I); format: in vivo, female Swiss albino mice (HAM/ICR)
Protocol: as §1

frog sciatic nerve = assay: Local anesthetic effect in vitro on the frog sciatic nerve; conditions: 5 min; 20 mM, after 5 minutes; read-out: block of the action potential of the nerve
[9] = cited from earlier work
mice [10] = assay: Acute oral toxicity in mice (24 Hr. mortality); conditions: oral, mice, 24 hr; dose to kill one of a thousand
mice [11] = conditions: mouse, in vivo, po, 1440 min
cardiac arrhythmias = conditions: in vivo; cited from earlier work
[12] = Acute oral toxicity in mice (24 Hr. mortality); conditions: mouse, in vivo, po
[13] = dose LD0.1, drug given 10 min before CHCl3 challenge
[14] = dose LD0.1, drug given 20 min before CHCl3 challenge
[15] = dose LD0.1, drug given 40 min before CHCl3 challenge
[16] = dose LD0.1, drug given 80 min before CHCl3 challenge

CCNC(C)C(=O)Nc1c(C)cc(C)cc1C (centres unmarked) showed an incidence of ataxia [1] of 100%, an incidence of convulsions [1] of 90% and an ED50 [2] of 162 mg/kg.
For Cc1cccc(C)c1NC(=O)[C@@H](C)N [2-amino-2',6'-propionoxylidide], the “Relative Potency (ED50 test compound/ED50 lidocaine)” value (“Relative Potency” below) [3] was 0.45 (0.26 - 0.78).
With CCc1cccc(CC)c1NC(=O)CN [2-amino-2', 6'-diethylacetanilide, 2-amino-2',6'-diethylacetanilide] the “Relative Potency” value [3] was 0.22 (0.13 - 0.36).
For CCc1cccc(CC)c1NC(=O)C(C)N (centres unmarked) [2-amino-2', 6'-diethylpropionanilide, 2-amino-2',6'-diethylpropionanilide], the “Relative Potency” value [3] was 0.48 (0.27 -0.73).
With CCc1cccc(C)c1NC(=O)CN [2-amino-2'-ethyl-6'-methyl acetanilide, 2-amino-2'-ethyl-6'-methylacetanilide] the “Relative Potency” value [3] was 0.27 (0.14 - 0.40).
In the case of Cc1cccc(C)c1NC(=O)CC(C)N (centres unmarked) [3-amino-2',6'-butyroxylidide], the adverse reactions (ventricular arrhythmias [4]; dog, in vivo, po) is reported as “unaccompanied by any discernible adverse reactions”, the “suppression of the ventricular arrhythmias” value (ventricular arrhythmias [4]; oral doses, dogs) is reported as “distinct suppression of the ventricular arrhythmias” and the adverse reactions (ventricular arrhythmias [5]; dog, in vivo, iv) is reported as “unaccompanied by any discernible adverse reactions”. For the same compound, the “suppression of the ventricular arrhythmias” value (ventricular arrhythmias [5]; intravenous doses, dogs) was “distinct suppression of the ventricular arrhythmias”, the toxic side-effects (ventricular arrhythmias [5]; intravenous, antiarrhythmic doses, dogs (Table VI)) was “minimal toxic side-effects” and the “Toxicity: Convulsions” value (ventricular arrhythmias [5]; intravenous, individual dogs) was “None”. The “Toxicity: Deaths” value (ventricular arrhythmias [5]; intravenous, individual dogs) was “None”, the “Relative Potency” value [3] was 0.99 (0.60 - 1.9) and the “Percent of Population Protected” value (ventricular fibrillation [6]) was 100%.
For Cc1cc(C)c(NC(=O)CCN)c(C)c1 [3-amino-2', 4', 6'-propionomesidide, 3-amino-2',4',6'-propionomesidide], the pKa (pKa) was 8.7 to 8.8.
For Cc1cccc(C)c1NC(=O)CCN [3-amino-2', 6'-propionoxylidide, 3-amino-2',6'-propionoxylidide], the “Relative Potency” value [3] was 0.4 (0.2 - 0.8).
For CCc1cccc(C)c1NC(=O)CCN [3-amino-2'-ethyl-6'-methylpropionanilide], the “Relative Potency” value [3] was 0.29 (0.09 - 0.81).
With Cc1cccc(C)c1NC(=O)[C@H](C)N [(+)-2-amino-2',6'-propionoxylidide] the “Relative Potency” value [3] was 0.11 (0.06 - 0.21).
For CCN(CC)CC(=O)Nc1c(C)cccc1C [Lidocaine, 2-diethylamino-2',6'-acetoxylidide], the “Proportion of mice protected against fibrillation at LD0.1” value (shortened to “Proportion of mice protected”) (ventricular fibrillation [7]; [13]) was 9/10, the “Proportion of mice protected” value (ventricular fibrillation [7]; [14]) was 10/10 and the “Proportion of mice protected” value (ventricular fibrillation [7]; [15]) was 7/10. The “Proportion of mice protected” value (ventricular fibrillation [7]; [16]) was 0/10, the “Proportion of mice having ataxia just before CHCl3 challenge” value (mice [8]; dose LD0.1, 10 min) was 0/10 and the “Proportion of mice having ataxia just before CHCl3 challenge” value (mice [8]; dose LD0.1, 20 min) was 9/10. The “Proportion of mice having ataxia just before CHCl3 challenge” value (mice [8]; dose LD0.1, 40 min) was 0/10, the “Proportion of mice having ataxia just before CHCl3 challenge” value (mice [8]; dose LD0.1, 80 min) was 0/10 and the “Number of dogs showing antiarrhythmic effect” value (ventricular arrhythmias [5]; i.v. infusion 15, 30, 60 mg/kg/hr, dogs tested: lidocaine 2, test compound 1, abnormal beats less than 5% of total) was 2. The inhibition at 20000 µM (frog sciatic nerve) was 78%, the “duration of blood levels” value ([9]; in vivo) was “fairly short” and the “levels of the drug in the blood” value ([9]; oral) was “low levels of the drug in the blood”. The oral effectiveness ([9]; oral) was “not orally effective”, the “loss of the drug after oral administration” value ([9]; oral, probably due to functions of the liver) was “pronounced loss of the drug” and the “24 Hr. Mortality LD0.1” value (mice [10]) was 154 mg/kg.
For CCN(CC)CCNC(=O)c1ccc(N)cc1 [Procainamide], the “Proportion of mice protected” value (ventricular fibrillation [7]; dose LD0.1, drug given 5 min before CHCl3 challenge) was 0/10, the “Proportion of mice protected” value (ventricular fibrillation [7]; [13]) was 1/10 and the “Proportion of mice protected” value (ventricular fibrillation [7]; [14]) was 0/10. The “Proportion of mice having ataxia just before CHCl3 challenge” value (mice [8]; dose LD0.1, 5 min) was 0/10, the “Proportion of mice having ataxia just before CHCl3 challenge” value (mice [8]; dose LD0.1, 10 min) was 0/10 and the “Proportion of mice having ataxia just before CHCl3 challenge” value (mice [8]; dose LD0.1, 20 min) was 0/10. For the same compound, the “24 Hr. Mortality LD0.1” value (mice [11]) was 248 mg/kg, the side effects (cardiac arrhythmias) was “exhibit undesirable side effects” and the LD50 at 24 h [12] was 643 mg/kg.
In the case of C=C[C@H]1C[N@@]2CC[C@H]1C[C@@H]2[C@@H](O)c1ccnc2ccc(OC)cc12 [Quinidine], the “Proportion of mice protected” value (ventricular fibrillation [7]; [14]) is reported as 10/10, the “Proportion of mice protected” value (ventricular fibrillation [7]; [15]) is reported as 9/9 and the “Proportion of mice protected” value (ventricular fibrillation [7]; [16]) is reported as 9/9. For the same compound, the “Proportion of mice having ataxia just before CHCl3 challenge” value (mice [8]; dose LD0.1, 20 min) was 0/10, the “Proportion of mice having ataxia just before CHCl3 challenge” value (mice [8]; dose LD0.1, 40 min) was 2/10 and the death (mice [8]; dose LD0.1, 40 min group) was 1 death. The death (mice [8]; dose LD0.1, 80 min group) was 1 death, the side effects (cardiac arrhythmias) was “exhibit undesirable side effects” and the LD50 at 24 h [12] was 382 mg/kg. The “24 Hr. Mortality LD0.1” value (mice [10]) was 348 mg/kg.
For O=C1NC(=O)C(c2ccccc2)(c2ccccc2)N1 [diphenylhydantoin], the side effects (cardiac arrhythmias) is listed as “exhibit undesirable side effects”.
For CC(C)NCC(O)COc1cccc2ccccc12 (centres unmarked) [propranolol], the side effects (cardiac arrhythmias) is given as “exhibit undesirable side effects”.
